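48-hour exposure; five concentrations; linearly interpolated endpoints. GI50: concentration for 50% inhibition of growth. TGI: concentration producing complete growth inhibition.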
Columns and labels:
Assay in all cases: NCI-60 cell line screen, 48 h
ACHN renal = system: ACHN renal
SK-MEL-28 melanoma = system: SK-MEL-28 melanoma
RPMI-8226 leukemia = system: RPMI-8226 leukemia
HL-60(TB) leukemia = system: HL-60(TB) leukemia
HOP-62 NSCLC = system: HOP-62 NSCLC
IGROV1 ovarian = system: IGROV1 ovarian
HOP-92 NSCLC = system: HOP-92 NSCLC
OVCAR-3 ovarian = system: OVCAR-3 ovarian
NCI/ADR-RES ovarian = system: NCI/ADR-RES ovarian
SF-539 CNS = system: SF-539 CNS
CAKI-1 renal = system: CAKI-1 renal
MALME-3M melanoma = system: MALME-3M melanoma
SK-OV-3 ovarian = system: SK-OV-3 ovarian
K-562 leukemia = system: K-562 leukemia
SN12C renal = system: SN12C renal
UACC-62 melanoma = system: UACC-62 melanoma
MDA-MB-231 breast = system: MDA-MB-231 breast
T-47D breast = system: T-47D breast
EKVX NSCLC = system: EKVX NSCLC
MCF7 breast = system: MCF7 breast
MOLT-4 leukemia = system: MOLT-4 leukemia
PC-3 prostate = system: PC-3 prostate
UO-31 renal = system: UO-31 renal
COLO 205 colon = system: COLO 205 colon
HCT-116 colon = system: HCT-116 colon
M14 melanoma = system: M14 melanoma
NCI-H226 lung = system: NCI-H226 lung
SK-MEL-2 melanoma = system: SK-MEL-2 melanoma
A498 renal = system: A498 renal
NCI-H23 lung = system: NCI-H23 lung
OVCAR-5 ovarian = system: OVCAR-5 ovarian
SNB-19 CNS = system: SNB-19 CNS
HS 578T breast = system: HS 578T breast
RXF 393 renal = system: RXF 393 renal
OVCAR-4 ovarian = system: OVCAR-4 ovarian
UACC-257 melanoma = system: UACC-257 melanoma
LOX IMVI melanoma = system: LOX IMVI melanoma
SK-MEL-5 melanoma = system: SK-MEL-5 melanoma
HT29 colon = system: HT29 colon
MDA-MB-435 = system: MDA-MB-435
SR leukemia = system: SR leukemia
NCI-H522 lung = system: NCI-H522 lung
KM12 colon = system: KM12 colon
SF-295 CNS = system: SF-295 CNS
OVCAR-8 ovarian = system: OVCAR-8 ovarian
SNB-75 CNS = system: SNB-75 CNS
SW-620 colon = system: SW-620 colon
786-0 renal = system: 786-0 renal
SF-268 CNS = system: SF-268 CNS
A549 NSCLC = system: A549 NSCLC
CCRF-CEM leukemia = system: CCRF-CEM leukemia
DU-145 prostate = system: DU-145 prostate
HCC-2998 colon = system: HCC-2998 colon
TK-10 renal = system: TK-10 renal
NCI-H460 lung = system: NCI-H460 lung
BT-549 breast = system: BT-549 breast
U251 CNS = system: U251 CNS
HCT-15 colon = system: HCT-15 colon

With `c1ccc(CSc2nc(N3CCCCC3)c3cn[nH]c3n2)cc1` the TGI (ACHN renal) was 94.7 µM, the TGI (SK-MEL-28 melanoma) was 41.3 µM and the TGI (RPMI-8226 leukemia) was 72.8 µM. It also gave a TGI (HL-60(TB) leukemia) greater than 100 µM, a TGI (HOP-62 NSCLC) of 43.3 µM and a TGI (IGROV1 ovarian) of 41.8 µM. It also gave a TGI (HOP-92 NSCLC) of 72.8 µM, a TGI (OVCAR-3 ovarian) of 69.1 µM and a TGI (NCI/ADR-RES ovarian) greater than 100 µM. It also gave a TGI (SF-539 CNS) of 34.9 µM, a TGI (CAKI-1 renal) greater than 100 µM and a TGI (MALME-3M melanoma) of 37.3 µM. For the same compound, the TGI (SK-OV-3 ovarian) was greater than 100 µM, the TGI (K-562 leukemia) was greater than 100 µM and the TGI (SN12C renal) was 42 µM. For the same compound, the TGI (UACC-62 melanoma) was 32 µM, the TGI (MDA-MB-231 breast) was 36.8 µM and the TGI (T-47D breast) was greater than 100 µM. For the same compound, the TGI (EKVX NSCLC) was 65.3 µM, the TGI (MCF7 breast) was 72.4 µM and the TGI (MOLT-4 leukemia) was greater than 100 µM. The TGI (PC-3 prostate) was 51 µM, the TGI (UO-31 renal) was 42.8 µM and the TGI (COLO 205 colon) was 62.4 µM. The TGI (HCT-116 colon) was 44.1 µM, the TGI (M14 melanoma) was 37 µM and the TGI (NCI-H226 lung) was 44.9 µM. For the same compound, the TGI (SK-MEL-2 melanoma) was 32.5 µM, the TGI (A498 renal) was 34.3 µM and the TGI (NCI-H23 lung) was 66.5 µM. It also gave a TGI (OVCAR-5 ovarian) greater than 100 µM, a TGI (SNB-19 CNS) of 79 µM and a TGI (HS 578T breast) of 43.9 µM. The TGI (RXF 393 renal) was 35.4 µM, the TGI (OVCAR-4 ovarian) was greater than 100 µM and the TGI (UACC-257 melanoma) was 35.4 µM. For the same compound, the TGI (LOX IMVI melanoma) was 49.1 µM, the TGI (SK-MEL-5 melanoma) was 31 µM and the TGI (HT29 colon) was greater than 100 µM. The TGI (MDA-MB-435) was 47.9 µM, the TGI (SR leukemia) was greater than 100 µM and the TGI (NCI-H522 lung) was 36.4 µM. For the same compound, the TGI (KM12 colon) was 35.4 µM, the TGI (SF-295 CNS) was 63.7 µM and the TGI (OVCAR-8 ovarian) was 74.3 µM. It also gave a TGI (SNB-75 CNS) of 46.8 µM, a TGI (SW-620 colon) of 44.5 µM and a TGI (786-0 renal) of 79.8 µM. The TGI (SF-268 CNS) was 61.3 µM, the TGI (A549 NSCLC) was greater than 100 µM and the TGI (CCRF-CEM leukemia) was greater than 100 µM. It also gave a TGI (DU-145 prostate) greater than 100 µM, a TGI (HCC-2998 colon) of 45 µM and a TGI (TK-10 renal) of 70.2 µM. The TGI (NCI-H460 lung) was 64.5 µM, the TGI (BT-549 breast) was 34.6 µM and the TGI (U251 CNS) was 40.7 µM. For the same compound, the TGI (HCT-15 colon) was greater than 100 µM.
`Clc1ccc(CCC(Cn2ccnc2)Sc2c(Cl)cccc2Cl)cc1` (centres undefined) showed a GI50 (ACHN renal) of 4.32 µM, a TGI (ACHN renal) of 15.1 µM and a GI50 (SK-MEL-28 melanoma) of 7.03 µM. It also gave a TGI (SK-MEL-28 melanoma) of 19.5 µM, a GI50 (RPMI-8226 leukemia) of 3.25 µM and a TGI (RPMI-8226 leukemia) greater than 100 µM. It also gave a GI50 (HL-60(TB) leukemia) of 2.85 µM, a TGI (HL-60(TB) leukemia) of 5.72 µM and a GI50 (HOP-62 NSCLC) of 6.03 µM. For the same compound, the TGI (HOP-62 NSCLC) was 19.4 µM, the GI50 (IGROV1 ovarian) was 4.45 µM and the TGI (IGROV1 ovarian) was 18.1 µM. For the same compound, the GI50 (HOP-92 NSCLC) was 1.79 µM, the TGI (HOP-92 NSCLC) was 7.23 µM and the GI50 (OVCAR-3 ovarian) was 3.34 µM. It also gave a TGI (OVCAR-3 ovarian) of 10.8 µM, a GI50 (NCI/ADR-RES ovarian) of 3 µM and a TGI (NCI/ADR-RES ovarian) of 11.7 µM. For the same compound, the GI50 (SF-539 CNS) was 4.71 µM, the TGI (SF-539 CNS) was 17.8 µM and the GI50 (CAKI-1 renal) was 2.6 µM. It also gave a TGI (CAKI-1 renal) of 10.5 µM, a GI50 (MALME-3M melanoma) of 2.92 µM and a TGI (MALME-3M melanoma) of 8.21 µM. The GI50 (SK-OV-3 ovarian) was 10.9 µM, the TGI (SK-OV-3 ovarian) was 22.8 µM and the GI50 (K-562 leukemia) was 3.28 µM. For the same compound, the TGI (K-562 leukemia) was 11.7 µM, the GI50 (SN12C renal) was 2.82 µM and the TGI (SN12C renal) was 14.9 µM. The GI50 (UACC-62 melanoma) was 2.8 µM, the TGI (UACC-62 melanoma) was 12.5 µM and the GI50 (MDA-MB-231 breast) was 3.9 µM. The TGI (MDA-MB-231 breast) was 18.8 µM, the GI50 (T-47D breast) was 2.25 µM and the TGI (T-47D breast) was 10.5 µM. The GI50 (EKVX NSCLC) was 2.64 µM, the TGI (EKVX NSCLC) was 17 µM and the GI50 (MCF7 breast) was 3.43 µM. For the same compound, the TGI (MCF7 breast) was 13.2 µM, the GI50 (MOLT-4 leukemia) was 2.89 µM and the TGI (MOLT-4 leukemia) was 8.21 µM. It also gave a GI50 (PC-3 prostate) of 2.64 µM, a TGI (PC-3 prostate) of 12.6 µM and a GI50 (UO-31 renal) of 3.07 µM. It also gave a TGI (UO-31 renal) of 13.8 µM, a GI50 (COLO 205 colon) of 3.14 µM and a TGI (COLO 205 colon) of 11.1 µM. For the same compound, the GI50 (HCT-116 colon) was 2.13 µM, the TGI (HCT-116 colon) was 5.3 µM and the GI50 (M14 melanoma) was 4.29 µM. For the same compound, the TGI (M14 melanoma) was 14.7 µM, the GI50 (NCI-H226 lung) was 5.59 µM and the TGI (NCI-H226 lung) was 35.1 µM. It also gave a GI50 (SK-MEL-2 melanoma) of 3.02 µM, a TGI (SK-MEL-2 melanoma) of 7.29 µM and a GI50 (A498 renal) of 1.59 µM. The TGI (A498 renal) was 6.66 µM, the GI50 (NCI-H23 lung) was 3.41 µM and the TGI (NCI-H23 lung) was 15.5 µM. It also gave a GI50 (OVCAR-5 ovarian) of 6.56 µM, a TGI (OVCAR-5 ovarian) of 20.4 µM and a GI50 (SNB-19 CNS) of 5.07 µM. The TGI (SNB-19 CNS) was 48.7 µM, the GI50 (HS 578T breast) was 3.28 µM and the TGI (HS 578T breast) was 19.5 µM. For the same compound, the GI50 (RXF 393 renal) was 2.57 µM, the TGI (RXF 393 renal) was 13.8 µM and the GI50 (OVCAR-4 ovarian) was 3.58 µM. For the same compound, the TGI (OVCAR-4 ovarian) was 16.5 µM, the GI50 (UACC-257 melanoma) was 3.39 µM and the TGI (UACC-257 melanoma) was 13 µM. For the same compound, the GI50 (LOX IMVI melanoma) was 2.11 µM, the TGI (LOX IMVI melanoma) was 5.11 µM and the GI50 (SK-MEL-5 melanoma) was 2.08 µM. For the same compound, the TGI (SK-MEL-5 melanoma) was 4.88 µM, the GI50 (HT29 colon) was 1.78 µM and the TGI (HT29 colon) was 3.77 µM. The GI50 (MDA-MB-435) was 2.78 µM, the TGI (MDA-MB-435) was 10.3 µM and the GI50 (SR leukemia) was 3.64 µM. The TGI (SR leukemia) was 24 µM, the GI50 (NCI-H522 lung) was 2.37 µM and the TGI (NCI-H522 lung) was 7.5 µM. The GI50 (KM12 colon) was 3.19 µM, the TGI (KM12 colon) was 11.2 µM and the GI50 (SF-295 CNS) was 2.56 µM. It also gave a TGI (SF-295 CNS) of 11.9 µM, a GI50 (OVCAR-8 ovarian) of 3.15 µM and a TGI (OVCAR-8 ovarian) of 14.3 µM. The GI50 (SNB-75 CNS) was 15.4 µM, the TGI (SNB-75 CNS) was 36.4 µM and the GI50 (SW-620 colon) was 3.43 µM. The TGI (SW-620 colon) was 13.9 µM, the GI50 (786-0 renal) was 3.49 µM and the TGI (786-0 renal) was 12.4 µM. It also gave a GI50 (SF-268 CNS) of 4.36 µM, a TGI (SF-268 CNS) of 20.2 µM and a GI50 (A549 NSCLC) of 3.5 µM. The TGI (A549 NSCLC) was 14.5 µM, the GI50 (CCRF-CEM leukemia) was 3.4 µM and the TGI (CCRF-CEM leukemia) was 14.1 µM. The GI50 (DU-145 prostate) was 5.05 µM, the TGI (DU-145 prostate) was 16.8 µM and the GI50 (HCC-2998 colon) was 2.85 µM. The TGI (HCC-2998 colon) was 11.8 µM, the GI50 (TK-10 renal) was 3.52 µM and the TGI (TK-10 renal) was 11.9 µM. For the same compound, the GI50 (NCI-H460 lung) was 3.07 µM, the TGI (NCI-H460 lung) was 10.8 µM and the GI50 (BT-549 breast) was 4.3 µM. It also gave a TGI (BT-549 breast) of 15.1 µM, a GI50 (U251 CNS) of 3.23 µM and a TGI (U251 CNS) of 14 µM. It also gave a GI50 (HCT-15 colon) of 3.54 µM and a TGI (HCT-15 colon) of 13.7 µM.

From PubChem BioAssay (NCI)
